Patent publication US20250154108A1 (priority 2022, published 2025)

Assay: in vivo
Parameters: species or system SD rats
Conditions: male, SD, rat, plasma, po, 1 mg/kg; read-out: Bioavailability F

bioavailability: 123%
SMILES: C[C@H](NC1=CC(=O)C2(CCCC2)C(=O)N1)c1cc(F)ccc1F [Compound of formula (I)]
